This note sets out measurements from patent publication US20220403364A1, “BACTERIA IN 3D POROUS MEDIA” (The Trustees of Princeton University, priority 2019, published 2022).

The test system of assay [1] is bacteria. In words: bacterial growth in the 3D porous medium with antibiotic (light absorbance at 600 nm). Type of assay: cell-based. Conditions: porous media. The protocol:
In some embodiments, changes in growth/motility due to changes in antibiotic or antibiotic concentrations can be quantified. […] Using an 0.81% gel with different concentrations of kanamycin ([…] (ref 504), 317.5 μg/ml (ref 503), 156.25 μg/ml (ref 502), and 78.125 μg/ml (ref 501)), it can be seen that for the two highest concentrations, there was no growth.
(§1) In both figures, different concentrations of ampicillin were tested 1 μg/ml (ref. 511, 521), 2 μg/ml (ref 512, 522), 3 μg/ml (ref 513, 523), 4 μg/ml (ref 514, 524) and 6 μg/ml (ref 515, 525). For FIG. 6B, the different concentrations were added to bacteria in liquid LB media with no shaking.
(§2) In FIGS. 6A-6C, the levels of bacteria were monitored by measuring light absorbance at 600 nm. In some embodiments, the cells or media is irradiated with light from a light source positioned above the cells, and a lens or sensor positioned below the cells then captures the light either being emitted from the cells (i.e., the intensity of light being emitted by a marker gene, etc.) or being transmitted through the cells (i.e., not being absorbed). A processor can then be used to quantify the measured light or sensor signals. Further a processor can also be used to convert the measured light or sensor signals into concentrations or bacterial cell counts, via, e.g., calibration curves. Based on that, various antibiotic performance characteristics can be determined—MIC, minimal bactericidal concentration (MBC), etc.

Assay [2] concerns bacteria. The assay can be described thus: bacterial growth in liquid LB media with no shaking, with antibiotic (light absorbance at 600 nm). Format: cell-based. As to the method:
as §1, §2

The structures appear in SMILES notation.

For the compound `CC1(C)S[C@@H]2[C@H](NC(=O)[C@H](N)c3ccccc3)C(=O)N2[C@H]1C(=O)O` [ampicillin], the bacterial growth result in the assay with bacteria [1] (ampicillin 1 μg/ml, FIG. 6C ref 521) is “showed growth”; in the assay with bacteria [1] (ampicillin 2 μg/ml, FIG. 6C ref 522) it was “only the 1 μg/ml concentration showed growth”; with bacteria [1] (ampicillin 3 μg/ml, FIG. 6C ref 523) it was “only the 1 μg/ml concentration showed growth”; in the assay with bacteria [1] (ampicillin 4 μg/ml, FIG. 6C ref 524), “only the 1 μg/ml concentration showed growth”; in the assay on bacteria [1] (ampicillin 6 μg/ml, FIG. 6C ref 525) it was “only the 1 μg/ml concentration showed growth”; with bacteria [2] (ampicillin 1 μg/ml, FIG. 6B ref 511) it was “growth was detected”. Moreover, the bacterial growth entry in the assay with bacteria [2] (ampicillin 2 μg/ml, FIG. 6B ref 512) is “growth was detected”; in the assay on bacteria [2] (ampicillin 3 μg/ml, FIG. 6B ref 513), “growth was detected”; in the assay with bacteria [2] (ampicillin 4 μg/ml, FIG. 6B ref 514), “no growth”; with bacteria [2] (ampicillin 6 μg/ml, FIG. 6B ref 515), “no growth”.
